Tests used:
Goto-Kakizaki (GK) rats [1] = assay: Chronic subcutaneous infusion in Goto-Kakizaki rats: body and organ weight, glucose homeostasis (IPGTT), insulin secretion; type: in vivo, rat
Method: The animal experiments on rats were conducted on diabetic adult 8 months aged male Goto-Kakizaki (GK) rats from the local colony of Paris-Diderot University (Paris, France). GK strain derived after backcrossing of animals selected at the upper limit of normal distribution for glucose tolerance. Characteristics of GK rats have been previously described. Rats had free access to a control carbohydrate diet (CHD) (D 12450Ki, Research diets, NJ) and were kept on 12 h light/dark cycle. […] Rats were killed by decapitation and blood and organs collected for measurement of metabolic parameters, islet isolation for quantitative RT-PCR analysis and immunohistochemistry. […] After three weeks of metabolite treatment (i.e. four weeks of HFD feeding) an intra-peritoneal glucose tolerance test (IPGTT) (2 g/kg) was performed in conscious mice following an overnight fast. Blood was collected from the tail vein before glucose injection and 15, 30, 60 and 120 minutes afterwards. Additional blood samples were collected during the IPGTT in GK rats 15, 90, 180 and 240 minutes after glucose injection. Blood glucose levels were determined using an Accu-Check® Performa (Roche Diagnostics, Meylan, France). Additional blood samples were collected at base line and 30 minutes after glucose injection in Microvette® CB 300 Lithium Heparin ([…], France). Plasma was separated by centrifugation and stored at -80° C. until insulin radioimmunoassay. Evaluation of overall glucose tolerance was obtained from cumulative glycemia (GCum) and the ΔG, which were determined by the total increment of plasma glucose values during the IPGTT (GCum) and the cumulative glycemia during the test above baseline (ΔG). After six weeks of metabolite treatment, mice were killed by decapitation and organ were dissected and weighed. Half of liver, fat and pancreas samples were snap frozen in liquid nitrogen and stored at -80° C. for molecular studies, and the second half processed for histopathology. All procedures were authorized following review by the institutional ethic committee and carried out under national license condition (Ref 00486.02). Blood glucose was measured using an Accu-Check® Performa (Roche Diagnostics, Meylan, France) and plasma insulin was determined using Insulin ELISA kits (Mercodia, Uppsala, Sweden). For determination of liver triglycerides, liver samples (100 mg) were homogenized and incubated in NonidetP-40 (5%) and supernatants containing triglycerides were collected. Triglycerides concentration was quantified in the supernatant fraction using a colorimetric assay (ab65336, Abcam, Paris, France) by measuring OD at 570 nm. The ratio NAD/NADH was determined using a quantification kit (MAK037; […] Samples were homogenized in the extraction buffer and clarified by centrifugation. Supernatant was deproteinized by filtration through a 10-kDa cutoff spin filter (Millipore SAS, Molsheim, France). The assay was then performed according to the manufacturer's instructions.

Goto-Kakizaki (GK) rats [2] = assay: Pancreas histology and immunohistochemistry of chronically treated GK rats; type: in vivo, rat
Method: Pancreas sections were labeled either with Hematoxylin-Eosin and Immunohistochemistry to determine insulin positive area (FIG. 9F) and treated with Ki 67 and DAPI to stain and quantify proliferative nuclei (FIG. 9G). […] All measures are from 6 rats per group. Data were analyzed using the unpaired Mann-Whitney test. […] Tissues were drop-fixed in 4% paraformaldehyde (Sigma-Aldrich, Saint Quentin Fallavier, France) immediately after collection and put through an automated carousel processor for dehydration, clearing, and paraffin embedding (Leica, Nanterre, France). Sections were prepared for liver (6 μm), pancreas (6 μm) and adipose tissue ([…]) and mounted on slides (DPX polymerizing mountant, Sigma-Aldrich, Saint Quentin Fallavier, France). Hematoxylin and Eosin (H&E) was used to evaluate tissue morphology. Epitope-specific antibodies were used for immunohistochemistry detection of insulin on pancreas sections (Dako, Saint Aubin, France). […] Quantitative expression of all immunostainings was performed using positive pixels algorithm (Indica Labs, Corrales, N. Mex.). […] Results are expressed as percentage of positive pixels, within islets where indicated. The quantification method is an automated observer-independent process based on section scanning and application of publicly available algorithms. […]

pancreas gene expression = assay: Quantitative RT-PCR in pancreas of chronically treated GK rats; type: in vivo, rat
Method: RNA was extracted from pancreas, adipose tissue and liver using the RNeasy RNA Mini Kit (Qiagen, Courtaboeuf, France). Reverse transcription was performed from a 20 μL reaction mixture with 500 ng RNA using M-MLV reverse transcriptase kit (ThermoFisher, Villebon, France). Quantitative RT-PCR was performed using sequence specific primers and the MESA green kit for SYBR green assays (Eurogentec, Angers, France). We used 18S and/or cyclophilin house keeping genes to normalize relative quantification of mRNA levels using the Livak and […] methods ([…], 2001).

isolated mouse islets = assay: Incubation of isolated mouse islets: insulin release, insulin content, Ki67 proliferation; type: cell-based
[3] = biological target: dual specificity tyrosine phosphorylation regulated kinase DYRK1A (Homo sapiens, UniProt Q13627); assay: In vitro interaction analysis (DiscoverX) by determination of the EC50

Cc1ccc(O)cc1 [4-cresol]
fasting glycemia (Goto-Kakizaki (GK) rats [1]): significant reduction | glycemic response to the glucose challenge throughout the IPGTT (glucose intolerance) (Goto-Kakizaki (GK) rats [1]): decrease | cumulative glycemia (Goto-Kakizaki (GK) rats [1]; IPGTT): significant drop | increase in pancreas weight (Goto-Kakizaki (GK) rats [1]; P<0.01): +94.6% | BMI (Goto-Kakizaki (GK) rats [1]; chronic administration 6 weeks): no effect | body weight (Goto-Kakizaki (GK) rats [1]; chronic administration 6 weeks): no effect | fasting insulinemia (Goto-Kakizaki (GK) rats [1]; vs saline): significantly more elevated | glucose-induced insulin secretion during the IPGTT (Goto-Kakizaki (GK) rats [1]; vs saline): significantly more elevated | cell proliferation (Ki 67 labeling) in pancreas (Goto-Kakizaki (GK) rats [2]): increased cell proliferation | insulin positive area (Goto-Kakizaki (GK) rats [2]): significant increase | stimulatory effects on expression of Sirt1, Ins1, Hnf1α, IL10 and Vegfa in pancreas (pancreas gene expression; GK rats): replicated | pancreatic expression of ERα (pancreas gene expression; GK rats in vivo): does not regulate significantly | DYRK1A pancreatic transcription (pancreas gene expression; GK rats, chronic treatment): significant downregulation | expression of genes encoding amylase, IL6 and Tnf in pancreas (pancreas gene expression; GK rats, differences to saline not statistically significant): strongly altered | islet cell proliferation (KI67) (isolated mouse islets; 10 nM): significant effect | increase in insulin release under basal condition (isolated mouse islets; 10 nM, 2.8 mM glucose): +17.3% | stimulation of insulin secretion in response to glucose (isolated mouse islets; 10 nM, glucose 16.6 mM, p=0.06): +25.8% | increase in islet insulin content (isolated mouse islets; 10 nM, p<0.05): +33.7% | insulin production, secretion and content (isolated mouse islets; 100 nM): no effect | binding to DYRK1A [3]: does bind
